From patent US7223797B2, “Meldonium salts, method of their preparation and pharmaceutical composition on their basis” (Joint Stock Company “Grindeks”, priority 2003, dated 2007)

Columns and labels:
[1] = Sample hygroscopicity test: H2O content before and after 24 hours at 100% humidity; format: physicochemical; settings: for H2O content after 24 hours maintenance at 100% humidity: closed vessel over water; for H2O content after 24 hours maintenance at 100% humidity / Initial H2O content in the sample: Fischer titration; for Initial H2O content in the sample: before the test; for hygroscopicity (in words): qualitative statement
Description: Sample hygroscopicity was tested by H2O content determination before the test and after 24 hours maintenance at 100% humidity (keeping in a closed vessel over water). On such conditions, Meldonium absorbs 10% water (as to mass increase) during 24 hours. Water content was determined by titration by Fischer's method; in cases of syrup formation water content is determined by sample mass increase.

[2] = Thermal / storage stability; format: physicochemical; settings: qualitative statement
[3] = rats; cited from earlier work
[4] = humans; cited from earlier work

Row | Compound | H2O content after 24 hours maintenance at 100% humidity [1] | Initial H2O content in the sample [1] | Sample mass increase due to absorbed water ([1]; 24 hours at 100% humidity) [%] | further results
1 | C[N+](C)(C)NCCC(=O)O.O=C([O-])C(=O)O [Meldonium oxalate (1:1)] | 3.1211% | 0.1661% | – | –
2 | C[N+](C)(C)NCCC(=O)[O-] [anhydrous form of Meldonium, reference compound] | – | – | – | hygroscopicity (in words) [1]: extremely hygroscopic; stability (in words) [2]: unstable
3 | C[N+](C)(C)NCCC(=O)O.O=S(=O)([O-])O [Meldonium sulfate (1:1)] | – | 1.4189% | 20 | –
4 | Cl [hydrogen chloride, reference compound] | – | – | – | hygroscopicity (in words) [1]: hygroscopic
5 | C[N+](C)(C)NCCC(=O)[O-].C[N+](C)(C)NCCC(=O)[O-].O=C(O)C=CC(=O)O [Meldonium maleate (2:1)] | – | 1.3595% | 18 | –
6 | C[N+](C)(C)NCCC(=O)O.NC(CC(=O)O)C(=O)[O-].O.O [Meldonium L-(+)-aspartate (1:1; ×2H2O)] | – | 12.5% | 18 | –
7 | C[N+](C)(C)NCCC(=O)O.O=C([O-])C=CC(=O)O [Meldoniuma maleate (1:1)] | 4.6844% | 0.387% | – | –
8 | CN(CC(=O)O)C(=N)N.C[N+](C)(C)NCCC(=O)[O-].O.O.O [Meldonium creatinate (1:1; ×3H2O)] | – | 15.8% | 18 | –
9 | C[N+](C)(C)NCCC(=O)O.O=C([O-])C(Cl)Cl [Meldonium dichloroacetate (1:1)] | – | 1.17% | 12 | –
10 | Meldonium sulfate | – | – | – | hygroscopicity (in words) [1]: hygroscopic
11 | C[N+](C)(C)NCCC(=O)O.C[N+](C)(C)NCCC(=O)O.O=S(=O)([O-])[O-] [Meldonium sulfate (2:1)] | – | 0.313% | 11.8 | –
12 | CC(O)C(=O)O.C[N+](C)(C)NCCC(=O)[O-] [Meldonium lactate (1:1)] | – | – | – | hygroscopicity (in words) [1]: hygroscopic
13 | citrate | – | – | – | hygroscopicity (in words) [1]: hygroscopic
14 | C[N+](C)(C)NCCC(=O)O.O.O=C([O-])c1cc2ccccc2c(Cc2c(O)c(C(=O)O)cc3ccccc23)c1O [Meldonium pamoate (1:1; ×H2O)] | – | 1.71% | 9 | –
15 | acetate [reference compound] | – | – | – | hygroscopicity (in words) [1]: hygroscopic
16 | C[N+](C)(C)NCCC(=O)[O-].O=C(O)C(O)C(O)C(O)C(O)C(=O)O (stereo not shown) [Meldonium mucate (galactarate; 1:1)] | 12.8% | 1.98% | – | –
17 | C[N+](C)(C)NCCC(=O)[O-].O.O.O=C([O-])CCC(=O)[O-].[Mg+2] [Meldonium magnesium succinate (1:1:1; ×2H2O)] | – | 10.1215% | 20 | –
18 | C[N+](C)(C)NCCC(=O)[O-] [Meldonium orotate (1:1)] | remains unchanged | 0.3919% | – | –
19 | C[N+](C)(C)NCCC(=O)[O-].C[N+](C)(C)NCCC(=O)[O-].O=C(O)C=CC(=O)O [Meldonium fumarate (2:1)] | 13.4707% | 1.5136% | – | –
20 | C[N+](C)(C)NCCC(=O)O.C[N+](C)(C)NCCC(=O)O.NCCS(=O)(=O)[O-].NCCS(=O)(=O)[O-].O.O.O [Meldonium 2-aminoethane sulfonate (taurate; 1:1; ×1.5H2O)] | 17.0854% | 9,4824% | – | –
21 | C[N+](C)(C)NCCC(=O)[O-] [Meldonium, 3-(2,2,2-trimethylhydrazinium) propionate] | – | – | – | half-elimination period compared with humans [3]: longer; stability (in words) [2]: not very stable; half-elimination period [4]: 4 to 10 h
22 | C[N+](C)(C)NCCC(=O)O.O=P([O-])(O)O [Meldonium phosphate (1:1)] | remains unchanged | 0.0762% | – | –
23 | C[N+](C)(C)NCCC(=O)[O-].O=C(O)C=CC(=O)O [Meldonium fumarate (1:1)] | remains unchanged | 0.18% | – | –
24 | C[N+](C)(C)NCCC(=O)[O-].C[N+](C)(C)NCCC(=O)[O-].O.O=C(O)C(O)C(O)C(O)C(O)C(=O)O (stereo not shown) [Meldonium mucate (galactarate; 2:1; ×H2O)] | 7.6830% | 3.0414% | – | –
25 | C[N+](C)(C)NCCC(=O)O.O.O.O=C([O-])CC(O)(CC(=O)[O-])C(=O)[O-].[Mg+2] [Meldonium magnesium citrate (1:1:1; ×2H2O)] | – | 9.45% | – | State of the sample after maintenance at 100% humidity ([1]; 24 hours at 100% humidity): the sample diffused
